Experimental data reported in US20230203023A1, “SALT AND CRYSTAL FORMS OF GLP-1R AGONISTS AND USES THEREOF” (QILU REGOR THERAPEUTICS INC., priority 2020, published 2023).
Converted amounts (≈) assume the structure as drawn. Read-outs that look alike come from different tables or passages of the source.

What was measured:
[1] = Solid stability evaluation (I/II), XRPD and HPLC; type: physicochemical; details: for Purity (area %): listed as Amorphous Free form
Procedure: To evaluate the physical and chemical stability of 1:1 Compound I Tris Salt (Form A) and amorphous free form, samples were stored under the conditions of 60° C. for 1 day and 25° C./60% RH or 40° C./75% RH for 1 week, respectively.
To evaluate the physical and chemical stability of 1:1 Compound II Citrate Salt (Form A), 1:1 Compound II Tris Salt (Form B) and freeform, samples were stored under the conditions of 60° C. for 1 day and 25° C./60% RH or 40° C./75% RH for 1 week, respectively.

[2] = Kinetic solubility test in water and bio-relevant media (SGF, FaSSIF, FeSSIF); type: physicochemical; details: for solubility at 1 h: 37 °C, thermodynamic from solid, read-out: S: solubility; for solubility at 1 h / S: solubility: 37° C.; for Purity (%), area percentage of API: for reference only (suspensions); for FC: form change: residual solids by XRPD; for pH: supernatant
Procedure: Weigh 100 mg of sodium chloride and 50 mg of Triton X-100 into a 50-mL volumetric flask. Add appropriate volume of purified water and sonicate until all solids are completely dissolved. Add about 68 μL of 12 M HCl and sufficient purified water closely to the target volume and adjust to pH 1.8. Dilute to volume with purified water, mix well and check the pH with a pH meter.
Weigh 170 mg of sodium phosphate monobasic, 21 mg of sodium hydroxide and 310 mg of sodium chloride, 110 mg of SIF powder into a 50-mL volumetric flask. Add appropriate volume of purified water and sonicate until all solids are completely dissolved. Add sufficient purified water closely to the target volume and adjust to pH 6.5. Dilute to volume with purified water, mix well and check the pH with a pH meter.
Weigh 0.41 mL of glacial acetic acid, 202 mg of sodium hydroxide and 594 mg of sodium chloride, 560 mg of SIF powder into a 50-mL volumetric flask. Add appropriate volume of purified water to dissolve the solids. Then add sufficient purified water closely to the target volume and adjust to pH 5.0. Dilute to volume with purified water, mix well and check the pH with a pH meter.
Kinetic solubility was evaluated in water and three bio-relevant media (SGF, FaSSIF and FeSSIF) for 1/4/24 hours. 3-4 mg of solids were suspended in 3 mL each medium (solid loading: 1 mg/mL, calculated using freeform) to get a suspension, followed by rolling (25 rpm) at 37° C. for 1/4/24 hours. At each time point, ˜1.0 mL of suspension was sampled out for centrifugation (12000 rpm, 2 min) and filtration through 0.45 μm PTFE membrane to obtain supernatant for HPLC and pH tests, the residual solids were analyzed by XRPD.
Kinetic solubility was evaluated for 1:1 Compound II Citrate Salt (Form A), 1:1 Compound II Tris Salt (Form B), and freeform of Compound II in water and three bio-relevant media (SGF, FaSSIF and FeSSIF) for 1/4/24 hours. 3-4 mg of solids were suspended in 3 mL each medium (solid loading:
1 mg/mL, calculated using freeform) to get a suspension, followed by rolling (25 rpm) at 37° C. for 1/4/24 hours. At each time point, ˜1.0 mL of suspension was sampled out for centrifugation (12000 rpm, 2 min) and filtration through 0.45 μm PTFE membrane to obtain supernatant for HPLC and pH tests, the residual solids were analyzed by XRPD. […] The purity results were for reference only since the samples were all suspensions.

[3] = FaSSIF, 4 hours, listed as Free form amorphous
[4] = FaSSIF, 24 hours, listed as Free form amorphous
[5] = FeSSIF, 1 hour, listed as Free form amorphous
[6] = FeSSIF, 4 hours, listed as Free form amorphous
[7] = FeSSIF, 24 hours, listed as Free form amorphous
[8] = H2O, 1 hour, listed as Free form amorphous
[9] = H2O, 4 hours, listed as Free form amorphous
[10] = H2O, 24 hours, listed as Free form amorphous
[11] = SGF, 1 hour, listed as Free form amorphous
[12] = SGF, 4 hours, listed as Free form amorphous
[13] = SGF, 24 hours, listed as Free form amorphous

O=C(O)c1ccc2nc(CN3CC=C(c4cccc(OCc5ccc(Cl)cc5F)c4)CC3)n(C[C@@H]3CCO3)c2c1 [Compound I, (S)-2-((4-(3-((4-chloro-2-fluorobenzyl)-oxy)phenyl)-3,6-dihydropyridin-1(2H)-yl)methyl)-1-(oxetan-2-ylmethyl)-1H-benzo[d]-imidazole-6-carboxylic acid]
Form change ([1]; 25° C./60% RH (open), 1 week): No | Observation ([1]; 25° C./60% RH (open), 1 week): Yellowish | Purity (area %) ([1]; 25° C./60% RH (open), 1 week): 93.06 area % | Purity (area %) ([1]; 40° C./75% RH (open), 1 week): 89.59 area % | Form change ([1]; 60° C. (capped), 1 day): No | Observation ([1]; 60° C. (capped), 1 day): Yellowish | Purity (area %) ([1]; 60° C. (capped), 1 day): 86.88 area % | Form change ([1]; Initial): No | Observation ([1]; Initial): White powder | Purity (area %) ([1]; Initial): 94.71 area % | solubility at 1 h ([2]; FaSSIF, pH 6.5, fassif, FaSSIF, 1 hour): 200 µg/mL (≈ 356 µM) | Purity (%), area percentage of API ([2]; FaSSIF, 1 hour, listed as Free form amorphous): 93.54% | S: solubility [2, 3]: 80 µg/mL | Purity (%), area percentage of API ([2]; FaSSIF, 4 hours): 49.59% | S: solubility [2, 4]: 40 µg/mL | Purity (%), area percentage of API [2, 4]: 63.24% | solubility at 1 h ([2]; FeSSIF, pH 5, fessif, FeSSIF, 1 hour): 400 µg/mL (≈ 712 µM) | Purity (%), area percentage of API [2, 5]: 94.78% | S: solubility [2, 6]: 500 µg/mL | Purity (%), area percentage of API [2, 6]: 91.80% | S: solubility [2, 7]: 400 µg/mL | Purity (%), area percentage of API [2, 7]: 77.57% | S: solubility [2, 8]: 30 µg/mL | Purity (%), area percentage of API [2, 8]: 100.00% | S: solubility [2, 9]: 20 µg/mL | Purity (%), area percentage of API [2, 9]: 87.13% | S: solubility [2, 10]: <LOQ | Purity (%), area percentage of API [2, 10]: 9.97% | S: solubility ([2]; SGF, 1 hour): 400 µg/mL | Purity (%), area percentage of API [2, 11]: 93.07% | S: solubility [2, 12]: 600 µg/mL | Purity (%), area percentage of API [2, 12]: 94.02% | S: solubility [2, 13]: 800 µg/mL | Purity (%), area percentage of API [2, 13]: 91.48% | FC: form change ([2]; FaSSIF, 1 hour): No | FC: form change ([2]; FaSSIF, 4 hours): No | FC: form change [2, 4]: Yes | FC: form change ([2]; FeSSIF, 1 hour): No | FC: form change ([2]; FeSSIF, 4 hours): No | FC: form change ([2]; FeSSIF, 24 hours): No | FC: form change ([2]; H2O, 1 hour): No | FC: form change ([2]; H2O, 4 hours): No | FC: form change ([2]; H2O, 24 hours): No | FC: form change [2, 11]: No | FC: form change [2, 12]: No | FC: form change [2, 13]: No | pH ([2]; FaSSIF, 1 hour): 6.5 | pH [2, 3]: 6.5 | pH [2, 4]: 6.4 | pH [2, 5]: 5.0 | pH ([2]; FeSSIF, 4 hours): 5.0 | pH ([2]; FeSSIF, 24 hours): 5.0 | pH [2, 8]: 8.4 | pH [2, 9]: 7.3 | pH [2, 10]: 6.8 | pH [2, 12]: 1.9
